Source: patent publication US9802954B2, “Piperidino-dihydrothienopyrimidine sulfoxides and their use for treating COPD and asthma” (Boehringer Ingelheim International GmbH, priority 2011, dated 2017)
“Also recorded” adds a separate entry of the source.

Experiments:
[1] = test system: LPS-induced neutrophil influx into bronchoalveolar lavage fluid of male Wistar rats; assay: LPS-induced lung inflammation model: inhibition of LPS-induced neutrophil influx into bronchoalveolar lavage fluid; assay type: in vivo, rat; details: oral by gavage, BALF 4 hours after end of LPS exposure
Protocol: The anti-inflammatory activity of Examples 1 and 2 and of Prior art compounds A and D was assessed in an in vivo LPS-induced lung inflammation model in rats.
As a measure of the pharmacological potency of the above mentioned compounds the half-maximal effective dose (ED50) in regard to the inhibition of lipopolysaccharide-induced (LPS-induced) neutrophil influx into the bronchoalveolar lavage fluid (BALF) was determined by assessing the dose response relationship. Bacterial endotoxins (lipopolysaccharides [LPS]) are components of the outer bacterial cell membrane which play an important role in the pathogenesis of infections with gram-negative bacteria. It is known that inhalation of such aerosolized LPS induces a dose-dependent increase in neutrophils to lung tissues and airspaces in rats which may be detected by analyzing the amount of neutrophils in the bronchoalveolar lavage fluid (BALF). […]
Determination of neutrophil content of the BALF was performed using an ADVIA 120 blood hemacytometer (Bayer Diagnostics). Neutrophil data were normalised (Positive Control (=LPS treatment alone)=100%, Negative Control (no LPS treatment, administration of “vehicle only”)=0%) and expressed as percent of LPS control. The ED50 was calculated using a nonlinear fit (with the Graph Pad Prism software and a sigmoidal dose response fit). […]

[2] = test system: conscious rats; assay: Gastric emptying and gastrointestinal transit in conscious rats (barium sulfate test meal); assay type: in vivo, rat; details: Wistar rats, p.o. 30 min before test meal; for gastric emptying compared to negative control / intestinal transit compared to negative control: all tested doses up to the 30-fold ED50 dose
Protocol: In order to evaluate whether the compounds of the present invention lead to gastrointestinal side effects the compounds of the invention have been administered to rats 30 minutes before the rats were fed with a test meal comprising barium sulfate. After that it was tested whether gastric emptying and/or gastrointestinal transit in these rats was affected by the presence of these compounds.
The effects of the compounds Example 1 and Example 2 on gastric emptying and gastrointestinal transit in conscious rats has been investigated as described below.
Wistar rats of both sexes weighing 130-160 g (ages: male 7 wk, female 8 wk) were used. The animals are obtained from an approved local distributor, a minimum of four days quarantine is required before use, during which time the animals are maintained under routine animal care procedures. Groups of up to 5 animals are housed in cages in a room with controlled temperature and humidity and a light/dark cycle with the lights on from 6 a.m. to 6 p.m. The animals have access to normal rodent chow and water ad libitum. The animals are transported to the laboratory on the day of experimentation.
Gastric emptying as well as small intestinal propulsion are determined using a barium sulfate test meal.
Five rats Crl:WI(Han) of each sex (n=10) were used. The animals were deprived of food 17 h prior to the experiment but allowed free access to water. The drug under investigation (drug was suspended to the concentration of 10 ml/kg body weight in 0.5% Natrosol solution) or the negative control (vehicle alone was given 10 ml/kg body weight) was administered 30 min. (p.o.) before the test meal at doses calculated to be 3-fold, 10-fold or 30-fold the ED50 found in efficacy studies in the rat.
The test meal (suspension of 7.5 g barium sulfate in 10 ml salt-free water) is given orally by gavage at a dose of 2 ml/100 g body weight. Thirty minutes after the administration of the test meal the animals were killed in deep isoflurane anaesthesia by cervical dislocation. The stomach and the intestine were then exposed by laparatomy and removed.
The removed stomach was weighed, then incised, the contents removed and the empty stomach is weighed again.
The length of gut traversed with barium sulfate in relation to the whole length of the gut is determined by direct measurements using a ruler.
The gastric content was calculated from the weight difference between the filled and empty stomach and normalized to 100 g body weight. Thus, an increase in weight difference indicated an impaired gastric emptying, whereas a decrease in weight difference indicated an enhanced gastric emptying.
The length of gut traversed with barium sulphate (as judged by visual inspection) in relation to the whole length of the gut (from the pylorus to the rectum) is determined by direct measurements using a ruler.
Intestinal transit is calculated as the percentage movement of barium sulphate in the intestine in relation to the whole length of the gut. Consequently an increased intestinal transit length indicated an accelerated intestinal transit whereas a decreased intestinal transit length indicated decelerated intestinal transit.
Data are expressed as mean±standard deviation (SD). For each dose, comparisons were performed using an analysis of variance (ANOVA) and a post hoc Dunnett test to compare the various groups to the controls when the ANOVA was significant. p<0.05 was considered significant.

| intestinal transit compared to negative control [2] | SMILES | ED50 (inhibition of LPS-induced neutrophil influx into BALF) [1] [mg/kg body weight] | gastric emptying (weight difference per body weight) compared to negative control ([2]; 3-fold ED50 dose) | gastric emptying (weight difference per body weight) compared to negative control ([2]; 10-fold ED50 dose) | gastric emptying (weight difference per body weight) compared to negative control ([2]; 30-fold ED50 dose) | gastric emptying compared to negative control [2] |
| --- | --- | --- | --- | --- | --- | --- |
| – | [O-][S+]1CCc2nc(N3CCC(c4ccc(Cl)cc4)CC3)nc(NC3(CO)CC3)c21 (stereo not drawn) [Prior art compound A] | 1.13 | – | – | – | – |
| no significant differences | [O-][S+]1CCc2nc(N3CCC(c4ccc(Cl)cc4)CC3)nc(NC3(CO)CCC3)c21 (single isomer, unassigned) [Example 1] | – | no relevant differences | no relevant differences | only a very moderate enhancement of the weight difference per body weight | neither showed a substantially enhanced or impaired gastric emptying |
| – | [O-][S+]1CCc2nc(N3CCC(c4cccc(Cl)c4)CC3)nc(NC3(CO)CC3)c21 (stereo not drawn) [Prior art compound D] | 6.66 | – | – | – | – |
| no relevant differences | [O-][S+]1CCc2nc(N3CCC(c4ncc(Cl)cn4)CC3)nc(NC3(CO)CCC3)c21 (single isomer, unassigned) [Example 2] | – | – | – | – | neither showed a substantially enhanced or impaired gastric emptying; also recorded: no relevant differences |
